Laboratory results published in the supplement of paper PMC11061612.

Assays:
[1] = compound: CN(CC[C@H](CSC1=CC=CC=C1)NC2=C(C=C(C=C2)S(=O)(=O)NC(=O)C3=CC=C(C=C3)N4CCC(CC4)[C@H](C5=CC=CC=C5C6=CC=C(C=C6)Cl)O)S(=O)(=O)C(F)(F)F)CCO [AZD4320]; conditions: max 1 µM
How it was run: (§1)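 Cancer cell lines were dosed for 72 hours (final DMSO typically 0.2%) after 24 hours at 37°C and 5% CO2 in 1536-well plates containing 7.5 μl DMEM/F12 or RPMI with 10% FBS. Viability came from CellTiter-Glo 2.0 luminescence, scaled between blank-well and DMSO-well means, and dose responses were fitted to a two-parameter logistic curve with a non-linear mixed effects model. The single-agent IC50 was obtained from this fit.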

[2] = compound: CS(=O)(=O)CCNCc1ccc(-c2ccc3ncnc(Nc4ccc(OCc5cccc(F)c5)c(Cl)c4)c3c2)o1 [Lapatinib]; conditions: max 10 µM
How it was run: as §1

[3] = compound: Cc1cc2ncnn2cc1Nc1ncc2c(n1)n(C1CCOCC1)c(=O)n2C [AZD7648]; conditions: max 10 µM
How it was run: as §1

[4] = compound: CC(=O)c1c(C)c2cnc(Nc3ccc(N4CCNCC4)cn3)nc2n(C2CCCC2)c1=O [Palbociclib]; conditions: max 10 µM
How it was run: as §1

[5] = compound: CC(C)n1c(=O)n(C)c2cnc3cc(F)c(-c4ccc(OCCCN5CCCCC5)nc4)cc3c21 [AZD1390]; conditions: max 0.3 µM
How it was run: as §1

[6] = compound: C[C@@H](Oc1cc(-c2cnn(C3CCNCC3)c2)cnc1N)c1c(Cl)ccc(F)c1Cl [Crizotinib]; conditions: max 10 µM
How it was run: as §1

[7] = compound: C1CN(CCC1(C(=O)N[C@@H](CCO)C2=CC=C(C=C2)Cl)N)C3=NC=NC4=C3C=CN4 [AZD5363]; conditions: max 10 µM
How it was run: as §1

[8] = compound: COc1cc(Nc2ncc3c(n2)-c2ccc(Cl)cc2C(c2c(F)cccc2OC)=NC3)ccc1C(=O)O [Alisertib]; conditions: max 10 µM
How it was run: as §1

[9] = compound: CCc1c2c(nc3ccc(O)cc13)-c1cc3c(c(=O)n1C2)COC(=O)[C@]3(O)CC [SN-38]; conditions: max 0.3 µM
How it was run: as §1

[10] = compound: C=CCn1c(=O)c2cnc(Nc3ccc(N4CCN(C)CC4)cc3)nc2n1-c1cccc(C(C)(C)O)n1 [AZD1775]; conditions: max 3 µM
How it was run: as §1

[11] = compound: COc1nnc2ccc(N3CCC(c4ccc(OCCN5CCN(C)C(=O)[C@H]5C)cc4)CC3)nn12 [AZD5153]; conditions: max 1 µM
How it was run: as §1

[12] = compound: O=C(Nc1ccc2[nH]nc(-c3ccncc3)c2c1)[C@@H]1CCN(CC(=O)N2CCN(c3ccc(-c4ncccn4)cc3)CC2)C1; conditions: max 5 µM
How it was run: as §1

[13] = compound: C[C@@H](Nc1cc(F)cc(F)c1)c1cc(C(=O)N(C)C)cc2c(=O)cc(N3CCOCC3)oc12 [AZD8186]; conditions: max 10 µM
How it was run: as §1

[14] = compound: COc1cccc(OCCCN)c1-c1cc(Nc2cnc(C#N)cn2)n[nH]1 [Prexasertib]; conditions: max 1 µM
How it was run: as §1

[15] = compound: C[C@@H]1COCCN1C2=NC(=NC(=C2)C3(CC3)[S@](=N)(=O)C)C4=C5C=CNC5=NC=C4 [AZD6738]; conditions: max 10 µM
How it was run: as §1

[16] = compound: CN(C)CCCOc1ccc(-c2ccc3ncc4c(c3c2)n(C2CCOCC2)c(=O)n4C)cn1 [AZD0156]; conditions: max 3 µM
How it was run: as §1

[17] = compound: COc1cccc2c1C(=O)c1c(O)c3c(c(O)c1C2=O)C[C@@](O)(C(=O)CO)C[C@@H]3O[C@H]1C[C@H](N)[C@H](O)[C@H](C)O1 [Doxorubicin]; conditions: max 1 µM
How it was run: as §1

[18] = compound: CC(=O)O[C@H]1C(=O)[C@@]2(C)[C@H]([C@H](OC(=O)c3ccccc3)[C@]3(O)C[C@H](OC(=O)[C@H](O)[C@@H](NC(=O)c4ccccc4)c4ccccc4)C(C)=C1C3(C)C)[C@]1(OC(C)=O)CO[C@@H]1C[C@@H]2O [Paclitaxel]; conditions: max 3 µM
How it was run: as §1

[19] = compound: CCN(CCO)CCCOc1ccc2c(Nc3cc(CC(=O)Nc4cccc(F)c4)[nH]n3)ncnc2c1 [AZD2811]; conditions: max 1 µM
How it was run: as §1

[20] = compound: Cc1c2c(nn1C)CSCc1cc(n(C)n1)CSc1cc(c3ccccc3c1)OCCCc1c(C(=O)O)n(C)c3c-2c(Cl)ccc13 [AZD5991]; conditions: max 1 µM
How it was run: as §1

[21] = compound: CC(=O)Nc1cccc(-n2c(=O)n(C3CC3)c(=O)c3c(Nc4ccc(I)cc4F)n(C)c(=O)c(C)c32)c1 [Trametinib]; conditions: max 1 µM
How it was run: as §1

[22] = compound: O=c1[nH]cc(F)c(=O)[nH]1 [5-Fluorouracil]; conditions: max 20 µM
How it was run: as §1

[23] = compound: C[C@@H](c1ccc2nccn2c1)n1nnc2ncc(-c3cnn(C)c3)nc21 [Savolitinib]; conditions: max 1 µM
How it was run: as §1

[24] = compound: O=C(c1cc(Cc2n[nH]c(=O)c3ccccc23)ccc1F)N1CCN(C(=O)C2CC2)CC1 [Olaparib]; conditions: max 10 µM
How it was run: as §1

[25] = compound: Cc1nc(-c2cn3c(n2)-c2ccc(-c4cnn(C(C)(C)C(N)=O)c4)cc2OCC3)n(C(C)C)n1 [Taselisib]; conditions: max 10 µM
How it was run: as §1

[26] = compound: COc1cc([C@@H]2c3cc4c(cc3[C@@H](O[C@@H]3O[C@@H]5CO[C@@H](C)O[C@H]5[C@H](O)[C@H]3O)[C@H]3COC(=O)[C@H]23)OCO4)cc(OC)c1O [Etoposide]; conditions: max 10 µM
How it was run: as §1

[27] = compound: CC1=C(C(=CC=C1)Cl)NC(=O)C2=CN=C(S2)NC3=CC(=NC(=N3)C)N4CCN(CC4)CCO [Dasatinib]; conditions: max 2 µM
How it was run: as §1

[28] = compound: Cn1cnc2c(F)c(Nc3ccc(Br)cc3Cl)c(C(=O)NOCCO)cc21 [Selumetinib]; conditions: max 10 µM
How it was run: as §1

[29] = compound: COc1cc2ncnc(Nc3ccc(F)c(Cl)c3)c2cc1OCCCN1CCOCC1 [Gefitinib]; conditions: max 10 µM
How it was run: as §1

[30] = compound: N#Cc1cnc(Nc2cc(NC[C@H]3CNCCO3)c(C(F)(F)F)cn2)cn1 [SRA737]; conditions: max 10 µM
How it was run: as §1

[31] = compound: C1CC(C1)(C(=O)[O-])C(=O)[O-].N.N.[Pt+2] [Carboplatin]; conditions: max 10 µM
How it was run: as §1

[32] = compound: CC1=CN2[C@@H](C1)C=NC3=CC(=C(C=C3C2=O)OC)OCCCCCOC4=C(C=C5C(=C4)N=C[C@@H]6CC(=CN6C5=O)C)OC [SG3199]; conditions: max 0.001 µM
How it was run: as §1

[33] = compound: NC1(c2ccc(-c3nc4ccn5c(=O)[nH]nc5c4cc3-c3ccccc3)cc2)CCC1 [MK-2206]; conditions: max 10 µM
How it was run: as §1

[34] = compound: CC1(C)CCC(CN2CCN(c3ccc(C(=O)NS(=O)(=O)c4ccc(NCC5CCOCC5)c([N+](=O)[O-])c4)c(Oc4cnc5[nH]ccc5c4)c3)CC2)=C(c2ccc(Cl)cc2)C1 [Venetoclax]; conditions: max 1 µM
How it was run: as §1

[35] = compound: Nc1ccn([C@@H]2O[C@H](CO)[C@@H](O)C2(F)F)c(=O)n1 [Gemcitabine]; conditions: max 0.3 µM
How it was run: as §1

Cell Line	IC50, cell viability 72 h [1] [nM]	IC50, cell viability 72 h [2] [nM]	IC50, cell viability 72 h [3] [nM]	IC50, cell viability 72 h [4] [nM]	IC50, cell viability 72 h [5] [nM]	IC50, cell viability 72 h [6] [nM]	IC50, cell viability 72 h [7] [nM]	IC50, cell viability 72 h [8] [nM]	IC50, cell viability 72 h [9] [nM]	IC50, cell viability 72 h [10] [nM]	IC50, cell viability 72 h [11] [nM]	IC50, cell viability 72 h [12] [nM]	IC50, cell viability 72 h [13] [nM]	IC50, cell viability 72 h [14] [nM]	IC50, cell viability 72 h [15] [nM]	IC50, cell viability 72 h [16] [nM]	IC50, cell viability 72 h [17] [nM]	IC50, cell viability 72 h [18] [nM]	IC50, cell viability 72 h [19] [nM]	IC50, cell viability 72 h [20] [nM]	IC50, cell viability 72 h [21] [nM]	IC50, cell viability 72 h [22] [nM]	IC50, cell viability 72 h [23] [nM]	IC50, cell viability 72 h [24] [nM]	IC50, cell viability 72 h [25] [nM]	IC50, cell viability 72 h [26] [nM]	IC50, cell viability 72 h [27] [nM]	IC50, cell viability 72 h [28] [nM]	IC50, cell viability 72 h [29] [nM]	IC50, cell viability 72 h [30] [nM]	IC50, cell viability 72 h [31] [nM]	IC50, cell viability 72 h [32] [nM]	IC50, cell viability 72 h [33] [nM]	IC50, cell viability 72 h [34] [nM]	IC50, cell viability 72 h [35] [nM]
SW620 (Colorectal Carcinoma)	> 1000	> 10000	> 10000	> 10000	> 300	> 10000	> 10000	> 10000	32.2	1140	> 1000	928	> 10000	306	> 10000	> 3000	640	116	> 1000	> 1000	39.6	> 20000	> 1000	> 10000	> 10000	3420	> 2000	911	> 10000	> 10000	> 10000	> 1	> 10000	> 1000	97.6
SK-HEP-1 (Hepatocellular Carcinoma)	> 1000	> 10000	> 10000	9050	> 300	> 10000	> 10000	> 10000	83.5	> 3000	> 1000	> 5000	> 10000	> 1000	> 10000	> 3000	698	45.4	> 1000	> 1000	> 1000	> 20000	> 1000	> 10000	> 10000	7400	> 2000	> 10000	> 10000	> 10000	> 10000	> 1	6200	> 1000	> 300
MDA-MB-436 (Breast Carcinoma)	> 1000	> 10000	> 10000	> 10000	> 300	> 10000	> 10000	> 10000	207	> 3000	> 1000	> 5000	> 10000	> 1000	> 10000	> 3000	> 1000	> 3000	> 1000	> 1000	> 1000	> 20000	> 1000	> 10000	> 10000	> 10000	> 2000	> 10000	> 10000	> 10000	> 10000	> 1	> 10000	> 1000	> 300
NCI-H1703 (Squamous Cell Lung Carcinoma)	> 1000	> 10000	> 10000	9730	> 300	8010	6660	6210	36.7	222	400	> 5000	4060	8.59	917	> 3000	142	5.86	> 1000	393	> 1000	> 20000	> 1000	> 10000	625	1640	47.8	> 10000	> 10000	1170	> 10000	> 1	2830	> 1000	4.23
